Laboratory results published in patent US9593305B2, “Differentiation of pluripotent stem cells” (Janssen Biotech, Inc., priority 2008, dated 2017).

Columns and labels:
[1] = tested on: H1 human embryonic stem cells; assay: Screen of CDK, GSK3 and TRK inhibitors with or without GDF-8, SOX17 and cell number (Example 20, Table 17); format: cell-based; settings: Plate 1; for Cell Number, % of positive control / Sox17 Expression, % of positive control: positive control = Activin A/Wnt3a
Experimental: Briefly, clusters of H1 human embryonic stem cells were grown on reduced growth factor Matrigel™ (Invitrogen; Cat #356231) coated tissue culture plastic. Cells were passaged using collagenase (Invitrogen; Cat #17104-019) treatment and gentle scraping, washed to remove residual enzyme, and plated with even dispersal at a ratio of 1:1 (surface area) on reduced growth factor […]™ (BD Biosciences; Cat #356231)-coated 96-well black plates (Packard ViewPlates; PerkinElmer; Cat #6005182) using volumes of 100 μl/well. Cells were allowed to attach and then recover log phase growth over a 1 to 3 day time period, feeding daily with MEF conditioned medium supplemented with 8 ng/ml bFGF (R&D Systems; Cat #233-FB). Plates were maintained at 37° C., 5% CO2 in a humidified box throughout the duration of assay.
Screening was conducted using the compounds described in Table 16. […] Compounds were made available as 5 mM stocks in 96-well plate format, solubilized in 100% DMSO (Sigma; Cat #D2650) and stored at −80° C. The library compounds were further diluted to an intermediate concentration of 0.2 mM in 50 mM HEPES (Invitrogen; Cat #15630-080), 20% DMSO and stored at 4° C. Test conditions were performed in triplicate, feeding on alternating days over a four-day assay period. Assay was initiated by aspirating culture medium from each well followed by three washes in PBS (Invitrogen; Cat #14190) to remove residual growth factors. On the first day of assay, test volumes of 200 μl per well were added to each well using DMEM:F12 base medium (Invitrogen; Cat #11330-032) supplemented with 0.5% FCS (HyClone; Cat #SH30070.03) and 100 ng/ml GDF-8 (R&D Systems, Cat #788-G8) plus 2.5 μM compound. A parallel set of test samples were treated in an identical manner but omitting GDF-8 from the medium. On the third day of assay, test volumes of 100 μper well were added to each well using DMEM:F12 base medium supplemented with 2% FCS plus 100 ng/ml GDF-8 (R&D Systems, Cat #788-G8). […] Positive control samples contained the same base medium supplemented with FCS and 100 ng/ml recombinant human activin A (PeproTech; Cat #120-14) throughout the four day assay along with Wnt3a (20 ng/ml) addition on days 1 and 2. Negative control samples contained DMEM:F12 base medium supplemented with FCS.
(§1) At the conclusion of four-days of culture, assay plates were washed twice with PBS (Invitrogen; Cat #14190), fixed with 4% paraformaldehyde (Alexis Biochemical; Cat #ALX-350-011) at room temperature for 20 minutes, then washed three times with PBS and permeabilized with 0.5% Triton X-100 (Sigma; Cat #T8760-2) for 20 minutes at room temperature. Cells were washed again three times with PBS and blocked with 4% chicken serum (Invitrogen; Cat #16110082) in PBS for 30 minutes at room temperature. Primary antibody (goat anti-human SOX17; R&D Systems; Cat #AF1924) was diluted 1:100 in 4% chicken serum and added to each well for one hour at room temperature. Alexa Fluor 488 conjugated secondary antibody (chicken anti-goat IgG; Molecular Probes; Cat #AZ1467) was diluted 1:200 in PBS and added to each sample well after washing three times with PBS. To counterstain nuclei, 4 μg/ml Hoechst 33342 (Invitrogen; Cat #H3570) was added for ten minutes at room temperature. Plates were washed once with PBS and left in 100 μl/well PBS for imaging.
(§2) Imaging was performed using an IN Cell Analyzer 1000 (GE Healthcare) utilizing the 51008bs dichroic for cells stained with Hoechst 33342 and Alexa Fluor 488. Exposure times were optimized from positive control wells and from untreated negative control wells stained with secondary antibody alone. Images from 15 fields per well were acquired to compensate for any cell loss during the bioassay and subsequent staining procedures. Measurements for total cell number and total SOX17 intensity were obtained from each well using IN Cell Developer Toolbox 1.7 (GE Healthcare) software. […]

[2] = tested on: CDK, GSK3, and/or TRK signaling pathways; assay: Primary selectivity of the proprietary small molecules (Table 16); settings: as listed in Table 17
Experimental: A subset of 14 proprietary small molecules, known to have specificity for the CDK, GSK3, and/or TRK signaling pathways were evaluated for their potential to differentiate human embryonic stem cells to cells expressing markers characteristic of the definitive endoderm lineage.

[3] = tested on: H1 human embryonic stem cells; assay: Primary screening: definitive endoderm differentiation in the absence of activin A, cell number and SOX17 (Example 3); format: cell-based; settings: 2.5 μM compound, 20 ng/ml Wnt3a days 1-2, no activin A, four-day assay
Experimental: Briefly, clusters of H1 human embryonic stem cells were grown on reduced growth factor […]™ (Invitrogen; Cat #1356231)-coated tissue culture plastic. Cells were passaged using collagenase (Invitrogen; Cat #17104-019) treatment and gentle scraping, washed to remove residual enzyme, and plated with even dispersal at a ratio of 1:1 (surface area) on reduced growth factor […]™-coated 96-well black plates (Packard ViewPlates; PerkinElmer; Cat #6005182) using volumes of 100 μl/well. Cells were allowed to attach as clusters and then recover log phase growth over a 1 to 3 day period, feeding daily with MEF conditioned medium supplemented with 8 ng/ml bFGF (R&D Systems; Cat #233-FB). Plates were maintained at 37° C., 5% CO2 in a humidified box throughout the duration of assay.
The compounds tested were made available as 5 mM stocks in 96-well plate format, solubilized in 100% DMSO (Sigma; Cat #D2650) and stored at −80° C. The library compounds were further diluted to an intermediate concentration of 0.2 mM in 50 mM HEPES (Invitrogen; Cat #15630-080), 20% DMSO and stored at 4° C. Test conditions were performed in triplicate, feeding on alternate days over a four-day assay period. Primary screening assays were initiated by aspirating culture medium from each well followed by three washes in PBS (Invitrogen; Cat #14190) to remove residual growth factors and serum. On the first day of assay, test volumes of 200 μl per well were added back containing DMEM:F12 base medium (Invitrogen; Cat #11330-032) supplemented with 0.5% FCS (HyClone; Cat #SH30070.03) and 20 ng/ml Wnt3a (R&D Systems; Cat #1324-WN) plus 2.5 μM test compound. On the third day of assay, test volumes of 200 μl per well were added back containing DMEM:F12 base medium supplemented with 2% FCS plus 2.5 μM test compound, without Wnt3a. Positive control samples contained the same base medium supplemented with FCS, substituting 100 ng/ml recombinant human activin A (PeproTech; Cat #120-14) for the test compound throughout the four-day assay along with Wnt3a (20 ng/ml) added only on days 1 and 2. Negative control samples contained DMEM:F12 base medium supplemented with FCS, adding Wnt3a on days 1 and 2 but omitting activin A.
as §1, with “counter stain” for “counterstain”
as §2, with “software. Segmentation for the nuclei was determined based on gray-scale levels (baseline range 100-300) and nuclear size.” for “software.”

[4] = compound in combination with GDF8

Row | SMILES | Cell Number, Average Total Cell Number ([1]; compound alone, No GDF8) | Sox17 Expression, Average Total Intensity ([1]; compound alone, No GDF8) | Cell Number, % of positive control ([1]; compound alone, No GDF8) | Sox17 Expression, % of positive control ([1]; compound alone, No GDF8) | Cell Number, Average Total Cell Number [1, 4] | Sox17 Expression, Average Total Intensity [1, 4] | Cell Number, % of positive control [1, 4] | Sox17 Expression, % of positive control [1, 4] | Compound Selectivity ([2]; GDF8 treatment) | Compound Selectivity ([2]; No GDF8 treatment) | Compound Selectivity [2] | Cell Number: % of positive control [3] | Sox17 Expression: % of positive control [3] | Sox17 Expression: Average Total Intensity [3] | Cell Number: Average Total Cell Number ([3]; positive control 100 ng/ml activin A + Wnt3a)
1 | COCCCNCc1ccc(Nc2nccc(-c3c[nH]c4ncccc34)n2)c(OC)c1 [Compound 12, N-(2-Methoxy-4-{[(3-methoxypropyl)amino]methyl}phenyl)-4-(1H-pyrrolo[2,3-b]pyridin-3-yl)pyrimidin-2-amine] | 13124 | −2.3E+05 | 90.7 % of positive control | −0.1 % of positive control | 31 | −1.3E+06 | 0.2 % of positive control | −0.6 % of positive control | Selective for CDK | Selective for GSK |  |  |  |  | 
2 | COc1ccc2cc1OCCCC(=O)N(C)CC1CN(Cc3c[nH]c4ncnc(c34)N2)C1 [Compound 45, 10-Methoxy-17-methyl-2,14,15,17,18,19,20,22-octahydro-6H-1-19.21 methano-7,11-(metheno)-12-oxa-2,3,5,6,17,21-hexaazacycloicosa[1,2,3-cd]inden-16(13H)-one] | 8857 | −4.5E+05 | 61.2 % of positive control | −0.2 % of positive control | 9540 | 1.1E+08 | 65.9 % of positive control | 47.9 % of positive control |  |  | Selective for Trk |  |  |  | 
3 | CN(C)CCNC(=O)c1ccc(-c2cnc3ccc(NCc4cccc(Cl)c4)nn23)cc1 [Compound 57, 4-(6-{[(3-Chlorophenyl)methyl]amino}imidazo[1,2-b]pyridazin-3-yl)-N-[2-(dimethylamino)ethyl]benzamide] | 1222 | −7.1E+05 | 8.4 % of positive control | −0.3 % of positive control | 2110 | 1.1E+07 | 14.6 % of positive control | 4.8 % of positive control |  |  | Selective for Trk |  |  |  | 
4 | CN1CCC(NC(=O)c2ccc(Nc3nccc(N4CCN(C)c5ccccc54)n3)cc2)CC1 [Compound 11, 4-{[4-(4-Methyl-3,4-dihydroquinoxalin-1(2H)-yl)pyrimidin-2-yl]amino}-N-(1-methylpiperidin-4-yl)benzamide] | 565 | −1.1E+06 | 3.9 % of positive control | −0.5 % of positive control | 210 | −4.9E+05 | 1.4 % of positive control | −0.2 % of positive control |  |  | Selective for CDK |  |  |  | 
5 | O=C1NCc2cccc(c2)-c2ccnc(n2)Nc2ccc(C(=O)N3CCOCC3)c(c2)CN2CCC[C@@H]12 [Compound 44, (18S)-11-(Morpholin-4-ylcarbonyl)-5,7,14,20,28-pentaazapentacyclo[20.3.1.1˜2,6˜0.1˜8,12˜0.0˜14,18˜]octacosa-1(26), 2(28), 3,5,8(27), 9,11,22,24-nonaen-19-one] | 14 | −1.1E+06 | 0.1 % of positive control | −0.5 % of positive control | 226 | −9.5E+05 | 1.6 % of positive control | −0.4 % of positive control |  |  | Selective for GSK |  |  |  | 
6 | CC(C)(C)OC(=O)NCCc1cccc(Nc2ncnc(-c3ccnc(C#CCO)c3)n2)c1 [Compound 3, 1,1-Dimethylethyl {2-[3-({4[2-(3-hydroxyprop-1-yn-1-yl)pyridin-4-yl]-1,3,5-triazin-2-yl}amino)phenyl]ethyl}carbamate] |  |  |  |  |  |  |  |  |  |  |  | 133.82 % of positive control | −0.73 % of positive control | −2.34E+06 | 14211
